# Assays:
# T2 cells [1] = assay: IFNγ release by CTL (ELISA) after incubation with peptide-loaded T2 cells; assay type: cell-based, human; settings: CTL elicited with the corresponding HER2/neu peptide, 20 h, 10^5 CTL/well
# Description: In interferon gamma-release assays, 10^5 HER2/neu-specific CTL were co-incubated with 10^5 peptide-loaded T2 cells for 20 hours at 37° C. The concentrations of human interferon gamma in co-cultured supernatants were then determined by ELISA.
# T2 cells [2] = assay: 51Cr-release assay using T2 cells pulsed with HER2/neu-derived peptides as targets for CTL; settings: T2 pulsed with the peptide; percentage of specific lysis
# Description: To probe class I presentation of cells loaded with the fusion peptides and their counterpart minimal peptides CTL recognizing the HER2/neu-derived peptides were generated. In vitro peripheral blood mononuclear cells (PBMCs) were immunized from healthy donors with these peptides in the presence of interleukin 2 and interleukin 7 using the following technique:
# The next day, 12 units/ml IL-2 (Chiron) and 30 units/ml IL-7 (R & D Systems) were added to the cultures. Lymphocytes were re-stimulated weekly with peptide-pulsed autologous adherent cells as follows: First, autologous PBMC were incubated with HER2/neu peptide (10 μg/ml) for 3 h at 37° C. Nonadherent cells were then removed by a gentle wash and the adherent cells were incubated with fresh medium containing the HER2/neu peptide (10 μg/ml) for an additional 3 h at 37° C.
# The induction of CTL in human PBMC was monitored in a conventional ^51Cr-labeling release assay. Briefly, peptide-pulsed TAP^−/HLA-A2.1^+ human T2 cells were incubated with 10 μg of HER2/neu peptides or the MART-1 control peptide for 90 min during labeling with ^51Cr. After washing, the target cells were added to serially diluted effectors in 96-well microplates. After a 6-h incubation at 37° C., supernatants were harvested and counted in a gamma counter. Results are expressed as the percentage of specific lysis and determined as follows: [(experimental cpm−spontaneous cpm)/(maximum cpm−spontaneous cpm)]×100.
# [3] = tested on: breast cancer cells MDA-MB-231; assay: IFNγ release by CTL (ELISA) after incubation with peptide-loaded MDA-MB-231 cells; assay type: cell-based, human; settings: CTL elicited with the corresponding HER2/neu peptide, 20 h, 10^5 CTL/well
# Description: In interferon gamma release assays, 10^5 HER2/neu-specific CTL were co-incubated with 10^5 peptide-loaded tumor cells for 20 hours at 37° C. The concentration of human interferon gamma in co-cultured supernatants was then determined by ELISA.
# [4] = tested on: ICP47-transfected cells MCF7; assay: Functional blockade of TAP by ICP47, 51Cr-release from peptide-loaded cells; assay type: cell-based, human; settings: CTL reactive against the corresponding HER2/neu peptide, 3 days after peptide loading, 6-hour assay
# Text: Another aspect in these studies was to determine the mechanisms of enhancement of the antigen presentation by the fusion peptides in human tumor cell lines. Therefore, a new test system was developed utilizing the Herpes Simplex virus (HSV) protein ICP47. ICP47 is a cytoplasmic protein, which interferes with antigen presentation by physically associating with TAP within the cell and inhibiting peptide transport across the ER-membrane. By transfecting the ICP47 gene into several cancer cell lines a novel system for screening different fusion peptides for TAP-independent translocation of peptide antigens through the ER-membrane was generated.
# The expression of these antigens was detected by ^51Cr-release assays.
Substance,"Release of IFNγ by CTL, T2 cells loaded with the peptide (T2 cells [1]; Day 1 after peptide loading)","Release of IFNγ by CTL, T2 cells loaded with the peptide (T2 cells [1]; Day 3 after peptide loading)","Release of IFNγ by CTL, T2 cells loaded with the peptide (T2 cells [1]; Day 5 after peptide loading)","Release of IFNγ by CTL, T2 cells loaded with the peptide (T2 cells [1]; Day 8 after peptide loading)","51Cr-release, E:T ratio 1.5:1 (T2 cells [2])","51Cr-release, E:T ratio 3.1 (T2 cells [2])","51Cr-release, E:T ratio 6:1 (T2 cells [2])","51Cr-release, E:T ratio 12:1 (T2 cells [2])","51Cr-release, E:T ratio 25:1 (T2 cells [2])","51Cr-release, E:T ratio 50:1 (T2 cells [2])","Release of IFNγ by CTL, MDA-MB-231 cells loaded with the peptide ([3]; Day 1 after peptide loading)","Release of IFNγ by CTL, MDA-MB-231 cells loaded with the peptide ([3]; Day 3 after peptide loading)","Release of IFNγ by CTL, MDA-MB-231 cells loaded with the peptide ([3]; Day 5 after peptide loading)","Release of IFNγ by CTL, MDA-MB-231 cells loaded with the peptide ([3]; Day 8 after peptide loading)",Percent 51Cr Released From ICP47-transfected MCF7 cells loaded with the construct ([4]; E:T 20:1),Percent 51Cr Released From ICP47-transfected MCF7 cells loaded with the construct ([4]; E:T 40:1)
CLTSTVQLV (listed as Homo sapiens) [HER2/neu789-797],2924 pg/mL,317 pg/mL,116 pg/mL,91 pg/mL,9%,22%,31%,52%,62%,83%,–,–,–,–,–,–
CLTSTVQLV MRYMILGLLALAAVCSA (CLTSTVQLVMRYMILGLLALAAVCSA) [HER789-797-ES],58 pg/mL,78 pg/mL,69 pg/mL,98 pg/mL,–,–,–,–,–,–,–,–,–,–,–,–
CLTSTVQLV MTNKCLLQIALLLCFSTTA (CLTSTVQLVMTNKCLLQIALLLCFSTTA) [HER789-797-IS],69 pg/mL,78 pg/mL,87 pg/mL,59 pg/mL,–,–,–,–,–,–,–,–,–,–,–,–
HLYQGCQVV (listed as Homo sapiens) [HER2/neu48-56],2280 pg/mL,488 pg/mL,134 pg/mL,177 pg/mL,8%,19%,33%,41%,53%,88%,–,–,–,–,–,–
HLYQGCQVV MRYMILGLLALAAVCSA (HLYQGCQVVMRYMILGLLALAAVCSA) [HER48-56-ES],418 pg/mL,218 pg/mL,99 pg/mL,101 pg/mL,–,–,–,–,–,–,–,–,–,–,–,–
HLYQGCQVV MTNKCLLQIALLLCFSTTALS (HLYQGCQVVMTNKCLLQIALLLCFSTTALS) [HER48-56-IS],288 pg/mL,148 pg/mL,155 pg/mL,121 pg/mL,–,–,–,–,–,–,–,–,–,–,–,–
"IISAVVGIL (listed as Homo sapiens) [HER2/neu654-662, reference compound]",2827 pg/mL,429 pg/mL,121 pg/mL,167 pg/mL,13%,26%,38%,59%,71%,91%,2826 pg/mL,438 pg/mL,131 pg/mL,147 pg/mL,–,–
IISAVVGIL MRYMILGLLALAAVCSA (IISAVVGILMRYMILGLLALAAVCSA) [HER654-662-ES],144 pg/mL,124 pg/mL,137 pg/mL,83 pg/mL,–,–,–,–,–,–,188 pg/mL,138 pg/mL,135 pg/mL,93 pg/mL,–,–
IISAVVGIL MTNKCLLQIALLLCFSTTALS (IISAVVGILMTNKCLLQIALLLCFSTTALS) [HER654-662-IS],111 pg/mL,99 pg/mL,121 pg/mL,76 pg/mL,–,–,–,–,–,–,144 pg/mL,102 pg/mL,132 pg/mL,86 pg/mL,–,–
M A CLTSTVQLV A A A A A G (MACLTSTVQLVAAAAAG) [HER789-797-IN-AF],296 pg/mL,327 pg/mL,178 pg/mL,117 pg/mL,–,–,–,–,–,–,–,–,–,–,–,–
M R CLTSTVQLV A A V C S A (MRCLTSTVQLVAAVCSA) [HER789-797-IN-ES],246 pg/mL,312 pg/mL,121 pg/mL,107 pg/mL,–,–,–,–,–,–,–,–,–,–,–,–
M R IISAVVGIL A A V C S A (MRIISAVVGILAAVCSA) [HER654-662-IN-ES],2929 pg/mL,2773 pg/mL,1699 pg/mL,671 pg/mL,–,–,–,–,–,–,2727 pg/mL,2666 pg/mL,1708 pg/mL,667 pg/mL,2%,2%
MR HLYQGCQVV AAVCSA (MRHLYQGCQVVAAVCSA) [HER48-56-IN-ES],3368 pg/mL,1349 pg/mL,988 pg/mL,228 pg/mL,–,–,–,–,–,–,–,–,–,–,–,–
MRYMILGLLALAAVCSA CLTSTVQLV (MRYMILGLLALAAVCSACLTSTVQLV) [ES-HER789-797],1824 pg/mL,526 pg/mL,168 pg/mL,110 pg/mL,–,–,–,–,–,–,–,–,–,–,–,–
MRYMILGLLALAAVCSA HLYQGCQVV (MRYMILGLLALAAVCSAHLYQGCQVV) [ES-HER48-56],2894 pg/mL,1876 pg/mL,953 pg/mL,589 pg/mL,–,–,–,–,–,–,–,–,–,–,–,–
MTNKCLLQIALLLCFSTTALS CLTSTVQLV (MTNKCLLQIALLLCFSTTALSCLTSTVQLV) [IS-HER789-797],1717 pg/mL,315 pg/mL,125 pg/mL,104 pg/mL,–,–,–,–,–,–,–,–,–,–,–,–
MTNKCLLQIALLLCFSTTALS HLYQGCQVV (MTNKCLLQIALLLCFSTTALSHLYQGCQVV) [IS-HER48-56],3268 pg/mL,1264 pg/mL,943 pg/mL,614 pg/mL,–,–,–,–,–,–,–,–,–,–,–,–

# From patent publication US20080044484A1, “Use of polymeric nanoparticles for vaccine delivery” (THE REGENTS OF THE UNIVERSITY OF CALIFORNIA, priority 2004, published 2008)
